Entries after “also recorded” stand apart in the source; their conditions may differ. Like-named read-outs stand apart in the source and are kept apart here. Blank lines part the entries; values can stand above or below the molecule they belong to.
Assays:
[1] = test system: mouse EAE model (clinical score); test: Mouse Experimental Autoimmune Encephalomyelitis Assay (EAE); format: in vivo; details: C57Bl/6 mice, prophylactic oral dosing regimen
Description: Mouse Experimental Autoimmune Encephalomyelitis Assay (EAE)
Mice (C57BL/6 female, 6-8 weeks of age, Charles River, n=10 treatment group) were immunized subcutaneously with 150 μg MOG35-55 emulsified 1:1 with incomplete Freund's adjuvant (sigma) supplemented with 150 μg Mycobacterium tuberculosis H37RA (Difco Laboratories). 400 ng of pertussis toxin (CalBiochem) was injected intraperitoneally on the day of immunization and 2 day later. Clinical scoring and body weight were taken 3 times per week. Clinical scoring system: 0.5: partial tail weakness; 1: limp tail or waddling gait with tail tonicity; 1.5: waddling gait with partial tail weakness; 2: waddling gait with limp tail (ataxia); 2.5: ataxia with partial limb paralysis; 3: full paralysis of one limb; 3.5: full paralysis of one limbs with partial paralysis of a second limb; 4: full paralysis of two limbs; 4.5: moribund; 5: death. Mean clinical score was calculated by averaging the scores of all mice in each group. All procedures involving animals were reviewed and approved by the Institutional Animal Care Use Committee.

[2] = test system: MRL/lpr spontaneous lupus model; test: MRL/lpr Lupus Model (anti-dsDNA antibody titers, kidney histology); format: in vivo; details: MRL/lpr mice, p.o. daily, 0.06, 0.3, 1.5 mg/kg
Excerpt: MRL/lpr Lupus Model: MRL/lpr is a spontaneous model of lupus. Male MRL/lpr mice (Jackson Laboratory) at the age of 12-14 weeks were enrolled for the study (N=12). […] Mice were bled every other week for anti-dsDNA antibodies measured by ELISA using pooled serum from diseased MRL/lpr mice as a positive comparator in each assay. The data were expressed in arbitrary units as a ratio of the titer of the test serum to the titer of the pooled MRL/lpr immune serum. At the end of study, one kidney was collected into 10% neutral buffered formalin and ZincTris fixatives. Fixed tissues were processed into paraffin blocks, sectioned at 3 μm, and stained with H&E or PASH. Kidney sections were graded using following criteria: Glomerular Damage: 1. Mesangial matrix thickening, cell proliferation, 2. Crescent formation, cellular deposits/casts in Bowman's space, 3. Cellular infiltration, mononuclear cells in glomerular tufts, 4. Fibrosis of Bowman's capsule. Tubular damage: 1. Infiltration of mononuclear cells, 2. Severity of tubular damage, 3. Protein casts. Tubulo-interstitial damage: 1. Fibrosis, 2. Infiltration of mononuclear cells. Each subcategory was assigned a score from 0-4, with the scores for glomerular indices representing the mean from 20 glomeruli per kidney. The total score for each mouse was the sum of the above 9 subcategories, with the highest possible score=36.

[3] = biological target: T1, S1P1 (Homo sapiens (Human), UniProt P21453); test: Receptor [35S] GTPγS binding assay (S1P1 GTPγS), membranes from S1P1/CHO cells; format: biochemical; details: for activity as an agonist of S1P1: result in words
T1 sequence (P21453 whole entry): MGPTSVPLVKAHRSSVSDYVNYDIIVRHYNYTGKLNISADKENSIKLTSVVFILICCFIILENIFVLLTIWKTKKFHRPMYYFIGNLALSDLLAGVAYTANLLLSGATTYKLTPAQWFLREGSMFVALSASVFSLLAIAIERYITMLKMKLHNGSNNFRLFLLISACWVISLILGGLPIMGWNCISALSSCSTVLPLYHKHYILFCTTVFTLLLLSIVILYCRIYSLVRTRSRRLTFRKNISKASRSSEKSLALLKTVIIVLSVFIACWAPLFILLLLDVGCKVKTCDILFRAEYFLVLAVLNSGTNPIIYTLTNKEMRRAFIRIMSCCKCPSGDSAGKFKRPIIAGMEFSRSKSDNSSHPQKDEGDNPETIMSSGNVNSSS
Description: (§1) Receptor [^35S] GTPγS Binding Assays: (S1P1 GTPγS/S1P3 GTPγS)
(§2) Membranes prepared from S1P1/CHO cells or EDG3-Gal5-bla HEK293T cells (EDG3 equivalent S1P3) were added to the compound plate ([…], final protein 3 μg/well) with MULTIDROP®. [^35S]GTP (1250 Ci/mmol, Perkin Elmer) was diluted in assay buffer: 20 mM HEPES, pH7.5, 10 mM MgCl2, 150 mM NaCl, 1 mM EGTA (ethylene glycol tetraacetic acid), 1 mM DTT (Dithiothreitol), 10 μM GDP, 0.1% fatty acid free BSA, and 10 μg/ml Saponin to 0.4 nM. 40 μl of the [^35S] GTP solution was added to the compound plate with a final concentration of 0.2 nM. The reaction was kept at room temperature for 45 min. At the end of incubation, all the mixtures in the compound plate were transferred to Millipore 384-well FB filter plates via the VELOCITY11® Vprep liquid handler. The filter plate was washed with water 4 times by using the manifold Embla plate washer and dried at 60° C. for 45 min. MicroScint 20 scintillation fluid (30 μl) was added to each well for counting on the Packard TOPCOUNT®.
A larger value for the GTPγS S1P3 EC50 value indicated less activity in the GTPγS S1P3 binding assay.

[4] = biological target: T1, S1P1; test: S1P1 binding assay (33P-S1P radioligand competition, membranes from CHO cells)
Description: Membranes were prepared from CHO cells expressing human S1P1. Cells pellets (1×10^9 cells/pellet) were suspended in buffer containing 20 mM HEPES (4-(2-hydroxyethyl)-1-piperazineethanesulfonic acid), pH 7.5, 50 mM NaCl, 2 mM EDTA (Ethylenediaminetetraacetic acid) and Protease Inhibitor cocktail (Roche), and disrupted on ice using the Polytron homogenizer. The homogenate was centrifuged at 20,000 rpm (48,000 g) and the supernatant was discarded. The membrane pellets were resuspended in buffer containing 50 mM HEPES, pH 7.5, 100 mM NaCl, 1 mM MgCl2, 2 mM EDTA and stored in aliquots at −80° C. after protein concentration determination.

[5] = biological target: S1P3 (EDG3) (Homo sapiens (Human), UniProt Q99500); test: Receptor [35S] GTPγS binding assay (S1P3 GTPγS), membranes from EDG3-Gal5-bla HEK293T cells; format: biochemical
Sequence of S1P3 (EDG3) (Q99500 whole entry): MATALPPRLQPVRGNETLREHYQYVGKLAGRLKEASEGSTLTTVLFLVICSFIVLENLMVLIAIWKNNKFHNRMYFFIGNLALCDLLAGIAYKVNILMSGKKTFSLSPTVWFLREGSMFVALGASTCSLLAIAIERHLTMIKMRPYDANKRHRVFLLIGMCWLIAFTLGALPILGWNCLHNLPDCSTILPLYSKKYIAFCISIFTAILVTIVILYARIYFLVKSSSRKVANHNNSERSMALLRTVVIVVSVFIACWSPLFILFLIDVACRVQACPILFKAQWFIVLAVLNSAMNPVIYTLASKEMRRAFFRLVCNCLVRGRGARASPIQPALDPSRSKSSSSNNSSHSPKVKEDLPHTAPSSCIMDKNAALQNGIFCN
Description: as §1
as §2, with “Compounds were loaded in a 384 Falcon v-bottom plate ([…] in a 11 point, 3-fold dilution). Membranes” for “Membranes”
A smaller value for GTPγS S1P1 EC50 value indicated greater activity for the compound in the GTPγS S1P1 binding assay. A larger value for the GTPγS S1P3 EC50 value indicated less activity in the GTPγS S1P3 binding assay. […]

[6] = biological target: hS1P1 (Homo sapiens (Human), UniProt P21453); test: hS1P1 ERK phosphorylation (S1P1 pERK) in hS1P1/CHO cells; format: cell-based; details: phosphate examples
Sequence of hS1P1 (P21453 whole entry): as the sequence (P21453 whole entry) above
Description: hS1P1 ERK Phosphorylation (S1P1 pERK)
hS1P1/CHO cells were plated into BD Amine 384-well plates the day before the assay. On the day of the assay, growth medium was removed and replaced with serum-free medium (Ham's F-12 Invitrogen) and incubated for 2 hours. Test compounds pre-diluted in HBSS (Gibco)/20 mM HEPES (Gibco) were transferred to the cell plates and incubated for 7 minutes at 37° C. Cells were lysed in lysis buffer (Perkin Elmer) and phospho-ERK was measured using the SureFire pERK kit (Perkin Elmer) as described by the manufacturer. Data was plotted as percentage activation of the test compound relative to the efficacy of 10 μM S1P.

[7] = test system: rat adjuvant-induced arthritis model (hind paw volume); test: Rat Adjuvant Induced Arthritis Assay (AA); format: in vivo, Lewis rats; details: Lewis rat, prophylactic oral dosing regimen
Description: Rat Adjuvant Induced Arthritis Assay (AA)
The rat adjuvant-induced arthritis model is an animal model for human rheumatoid arthritis.
Male Lewis rats (150-175 g; Harlan, n=8 treatment group) were immunized at the base of the tail with 100 μl of 10 mg/ml freshly ground Mycobacterium butyricum (Difco Laboratories) in incomplete Freund's adjuvant (sigma). Animals were dosed once daily with the test article (as a solution or suspension in the vehicle) or vehicle alone (polyethylene glycol 300, “PEG300”) starting from the day of immunization. The volumes of their hind paws were measured in a water displacement plethysmometer (Ugo Basile, Italy). The baseline paw measurements were taken before onset of the disease (between day 7 to day 10). The paw measurements were then taken three times a week until the end of the study on day 20 to 21. All procedures involving animals were reviewed and approved by the Institutional Animal Care Use Committee.

[8] = test system: rat EAE model (clinical score); test: Rat Experimental Autoimmune Encephalomyelitis (EAE); format: in vivo, Lewis rats; details: Lewis rat; for Clinical Score on Day 11 (Mean): rat EAE, prophylactic oral dosing
Description: Rat Experimental Autoimmune Encephalomyelitis (EAE):
Female Lewis rats (150-200 g; Harlan) were immunized at the base of the tail with 0.1 ml of a complete Freund's adjuvant emulsion containing 0.5 mg/mL guinea pig myelin basic protein (Genemed Synthesis) and 2 mg/mL Mycobacterium butyricum (Difco). Beginning on Day 7, rats (n=11/group) were scored individually at least 3×/wk according to the following scheme:
Average clinical scores were calculated for each treatment group on each day of assessment.

[9] = membranes from S1P1/CHO cells, read-out: GTPγS S1P1 EC50
[10] = 33P-S1P competition, membranes from CHO cells expressing human S1P1, read-out: S1P1 Binding IC50

SMILES: COc1ccccc1CC[C@@H]1CCc2cc([C@H]3CC[C@](N)(CO)C3)ccc2C1 [Example 681, ((1R,3S)-1-amino-3-((S)-6-(2-methoxyphenethyl)-5,6,7,8-tetrahydronaphthalen-2-yl)cyclopentyl)methanol]
inhibition of disease progression as measured by clinical scores [1]: showed inhibition of disease progression; also recorded: inhibit disease progression | inhibition of disease progression as measured by anti-dsDNA titers and kidney histology [2]: showed inhibition of disease progression

EC50 [3, 9]: 4.4 nM
SMILES: COCCCCCC1CCc2cc([C@@H]3CC[C@](N)(COP(=O)(O)O)C3)ccc2C1 (single isomer, unassigned) [Example 692]

activity as an agonist of S1P1 [3]: possessed activity as an agonist of S1P1
SMILES: COc1ccccc1CCC1CCc2cc([C@H]3CC[C@](N)(COP(=O)(O)O)C3)ccc2C1 (single isomer, unassigned) [Example 697]

EC50 [3, 9]: 49 nM | IC50 [4, 10]: 119 nM
SMILES: CCOCCCC1CCc2cc([C@H]3CC[C@](N)(COP(=O)(O)O)C3)ccc2C1 (single isomer, unassigned) [Example 695]

EC50 ([3]; phosphate examples, read-out: S1P1 GTPγS): 10 to 100 nM | IC50 ([4]; phosphate examples, read-out: S1P1 Binding): < 10 nM | EC50 ([5]; phosphate examples): > 625 nM | EC50 [6]: < 10 nM
SMILES: CCC/C=C/CO[C@@H]1CCc2cc([C@H]3CC[C@](N)(COP(=O)(O)O)C3)ccc2C1 [compound 439]

EC50 [3, 9]: 19.2 nM | IC50 [4, 10]: 5.2 nM
SMILES: COc1cccc(CCC2CCc3cc([C@H]4CC[C@](N)(COP(=O)(O)O)C4)ccc3C2)c1 (single isomer, unassigned) [Example 693]

SMILES: COCCCCC[C@H]1CCc2cc([C@H]3CC[C@](N)(CO)C3)ccc2C1 [Example 672, ((1R,3S)-1-amino-3-((S)-6-(5-methoxypentyl)-5,6,7,8-tetrahydronaphthalen-2-yl)cyclopentyl)methanol]
inhibition of disease progression as measured by reduced paw swelling [7]: showed inhibition of disease progression

activity as an agonist of S1P1 [3]: possessed activity as an agonist of S1P1 | selectivity over S1P3 ([5]; result in words, S1P1 versus S1P3 GTPγS): selective over S1P3
SMILES: COCCCCCC1CCc2cc([C@H]3CC[C@](N)(COP(=O)(O)O)C3)ccc2C1 (single isomer, unassigned) [Example 689]

SMILES: CCOCCC[C@@H]1CCc2cc([C@H]3CC[C@](N)(CO)C3)ccc2C1 [Example 679, ((1R,3S)-1-amino-3-((S)-6-(3-ethoxypropyl)-5,6,7,8-tetrahydronaphthalen-2-yl)cyclopentyl)methanol]
inhibition of disease progression as measured by reduced paw swelling [7]: showed inhibition of disease progression | inhibition of disease progression as measured by clinical scores [1]: showed inhibition of disease progression; also recorded: inhibit disease progression | inhibition of disease progression as measured by reduced clinical scores ([8]; prophylactic oral dosing regimen): showed inhibition of disease progression | Clinical Score on Day 11 (Mean) ([8]; 0.3 mg/kg): 0.36 | Clinical Score on Day 11 (Mean) ([8]; 1.0 mg/kg): 0.09 | Clinical Score on Day 11 (Mean) ([8]; 3.0 mg/kg): 0.02

— patent publication US10166249B2, “Substituted bicyclic compounds” (BRISTOL-MYERS SQUIBB COMPANY, priority 2014, dated 2019)
